Data taken from patent publication US6127379A, “Benzopyran, benzothiopyran and benzofuran derivatives as 5-HT4 antagonists” (SmithKline Beecham p.l.c., priority 1994, dated 2000).
Counter-ions that a name gives are not always drawn.

How the values were obtained:
[1] = target: T1, 5-HT4 receptor (Cavia porcellus, UniProt O70528); experiment: Guinea pig colon longitudinal muscle-myenteric plexus, 5-HT-evoked contraction; format: cell-based; settings: guinea pig distal colon
T1 construct: guinea pig distal colon longitudinal muscle-myenteric plexus, 5-HT-evoked contraction
Experimental: (§1) 5-HT4 RECEPTOR ANTAGONIST ACTIVITY
Male guinea-pigs, weighing 250-400g are used. Longitudinal muscle-myentericplexus preparations, approximately 3 cm long, are obtained from the distal colon region. These are suspended under a 0.5 g load in isolated tissue baths containing Krebs solution bubbled with 5%, CO2 in O2 and maintained at 37° C. In all experiments, the Krebs solution also contains methiothepin 10^-7 M and granisetron 10^-6 M to block effects at 5-HT1, 5-HT2 and 5-HT3 receptors.
After construction of a simple concentration-response curve with 5-HT, using 30 s contact times and a 15 min dosing cycle, a concentration of 5-HT is selected so as to obtain a contraction of the muscle approximately 40-70% maximum(10^-9 M approx). The tissue is then alternately dosed every 15 min with this concentration of 5-HT and then with an approximately equi-effective concentration of the nicotine receptor stimulant, dimethylphenylpiperazinium (DMPP). After obtaining consistent responses to both 5-HT and DMPP, increasing concentrations of a putative 5-HT4 receptor antagonist are then added to the bathing solution. The effects of this compound are then determined as a percentage reduction of the contractions evoked by 5-HT or by DMPP. […] A compound which reduces the response to 5-HT but not to DMPP is believed to act as a 5-HT4 receptor antagonist.

[2] = tested on: 5-HT4 receptor; experiment: 5-HT-induced motility in dog gastric pouch; format: in vivo; settings: dose of 10 μg kg^-1
Experimental: as §1
4) 5-HT-induced motility in dog gastric pouch
Compounds are tested in the in vivo method described in "Stimulation of canine motility by BRL 24924, a new gastric prokinetic agent", Bermudez et al, J. Gastrointestinal Motility, 2(4), 281-286.

[3] = target: 5-HT4 receptor (Sus scrofa, UniProt Q6Q253); experiment: Piglet atria spontaneous beating screen; format: cell-based; settings: piglet spontaneously beating atria
Experimental: as §1
Compounds were tested in the piglet spontaneous beating screen (Naunyn-Schmiedeberg's Arch. Pharmacol 342, 619-622). pKB (-log10 KB) value for the compound of Examples 3 and 7 were 9.8 and 7.7 respectively.

T1 sequence (O70528 whole entry): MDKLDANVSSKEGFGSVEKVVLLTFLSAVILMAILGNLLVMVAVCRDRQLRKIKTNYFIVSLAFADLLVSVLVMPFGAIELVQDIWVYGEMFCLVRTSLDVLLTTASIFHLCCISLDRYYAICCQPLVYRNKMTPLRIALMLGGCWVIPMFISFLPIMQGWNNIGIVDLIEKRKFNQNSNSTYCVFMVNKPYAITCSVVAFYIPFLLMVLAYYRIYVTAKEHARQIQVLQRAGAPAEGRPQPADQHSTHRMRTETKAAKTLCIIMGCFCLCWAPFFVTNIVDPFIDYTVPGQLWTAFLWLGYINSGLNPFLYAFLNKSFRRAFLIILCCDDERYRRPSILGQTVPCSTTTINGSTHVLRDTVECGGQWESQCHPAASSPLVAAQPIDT
Chain of 5-HT4 receptor (Sus scrofa, UniProt Q6Q253) (Q6Q253 1-402): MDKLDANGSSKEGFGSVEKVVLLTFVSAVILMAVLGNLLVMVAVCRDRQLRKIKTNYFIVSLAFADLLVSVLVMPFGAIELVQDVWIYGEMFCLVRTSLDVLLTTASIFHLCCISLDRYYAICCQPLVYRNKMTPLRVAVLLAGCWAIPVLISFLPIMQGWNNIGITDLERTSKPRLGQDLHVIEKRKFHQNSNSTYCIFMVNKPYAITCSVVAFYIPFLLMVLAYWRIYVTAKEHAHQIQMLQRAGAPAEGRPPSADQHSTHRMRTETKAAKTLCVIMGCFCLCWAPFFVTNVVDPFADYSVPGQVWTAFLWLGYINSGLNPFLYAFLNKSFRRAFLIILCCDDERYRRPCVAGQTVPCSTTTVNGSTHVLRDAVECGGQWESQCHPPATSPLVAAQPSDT

Row | Structure (SMILES) | 5-HT4 receptor antagonist activity (in words) [1] | inhibition of 5-HT-induced motility [2] | pKB (-log10 KB) [3]
1 | CCCCN1CCC(CNC(=O)c2cc(Cl)c(N)c3c2OCCC3)CC1 [Example E12, 5-Amino-(1-butyl-4-piperidyl)methyl-6-chloro-[2H]-3,4-dihydro-1-benzopyran-8-carboxamide] | particularly good activity |  | 
2 | CCCCN1CCC(COC(=O)c2cc(Cl)cc3c2OCCC3)CC1 [Example E3, (1-Butyl-4-piperidyl)methyl-6-chloro-[2H]-3,4-dihydro-1-benzopyran-8-carboxylate] | particularly good activity | showed inhibition | 9.8
3 | CCCCN1CCC(CNC(=O)c2cc(Cl)cc3c2OCCC3)CC1 [Example E8, (1-Butyl-4-piperidyl)methyl-6-chloro-[2H]-3,4-dihydro-1-benzopyran-8-carboxamide hydrochloride] | particularly good activity |  | 
4 | O=C(OCCN1CCCCC1)c1cc(Cl)cc2c1OCCC2 [Example E7, (1-Piperidyl)ethyl-6-chloro-[2H]-3,4-dihydro-1-benzopyran-8-carboxylate hydrochloride] |  |  | 7.7
